# Experimental data as given in patent publication US20200131669A1, “CYCLIC PEPTIDE COMPOUND HAVING HIGH MEMBRANE PERMEABILITY, AND LIBRARY CONTAINING SAME” (Chugai Seiyaku Kabushiki Kaisha, priority 2017, published 2020).
# Starred links: 1 amine or outer side, 2 acyl side, 3 side chain; linkers in the order of their positions; H or OH if unused. Positions of bridges follow the written chain, without caps; N, C: chain ends. Non-standard residues stand in square brackets, D forms with d. Residues, ends and D or L forms follow the SMILES beside them. ξ: configuration not given here. *: point of attachment. Glu(NHSO2Me) = CS(=O)(=O)NC(=O)CC[C@H](N)C(=O)O; hNle(7,7-F2) = N[C@@H](CCCCC(F)F)C(=O)O; Gly(NCH2CH2Ph) = O=C(O)CNCCc1ccccc1; hhPhe = N[C@@H](CCCc1ccccc1)C(=O)O; NMeF = CN[C@@H](Cc1ccccc1)C(=O)O; NMeGABA = CN(CCCC(=O)[*:2])[*:1]; NMeI = CC[C@H](C)[C@H](NC)C(=O)O; 3Pal = N[C@@H](Cc1cccnc1)C(=O)O; NMeβAla = CN(CCC(=O)[*:2])[*:1]; NMeD = CN[C@@H](CC(=O)O)C(=O)O; NMeL = CN[C@@H](CC(C)C)C(=O)O; NMeV = CN[C@H](C(=O)O)C(C)C; NMeAbu = CC[C@H](NC)C(=O)O; NMeA = CN[C@@H](C)C(=O)O; Piperidide = C1CCN(*)CC1; dNMeA = CN[C@H](C)C(=O)O; CH2CMe2OH = CC(C)(O)C*; NBuGly = CCCCNCC(=O)O; Isopentyl = CC(C)CC*; NPrGly = CCCNCC(=O)O; X11 = FC(F)C(F)(F)C*; ξS = NC(CO)C(=O)O; Sar = CNCC(=O)O; tBu = CC(C)(C)*
# Experiment: Caco-2 membrane permeability, improved method as used in the following Examples (96-well, 20 to 24 h preincubation)
# Type: in vitro ADME
# Details: human, Caco-2, Caco-2
# Method: In the following Examples, membrane permeability was measured in accordance with the improved method established as described above. Specifically, Caco-2 cells were cultured on a 96-well Transwell for three weeks, after which DMEM+FaSSIF (1% DMSO)+compound were added to the apical side and DMEM was added to the basal side, and the cells were preincubated at 5% CO2, 37° C., and 80 rpm for 20 to 24 hours. Following the preincubation, measurement of membrane permeability was initiated by removing the preincubation solution on the apical and basal sides by suction, washing the membrane, and adding FaSSIF/HBSS buffer (1% DMSO) (pH 6.0) containing the compound to the apical side and HBSS buffer (4% BSA) (pH 7.4) to the basal side. Each well was shaken at 5% CO2, 37° C., and 80 rpm, and 180 minutes after the initiation, the sample on the basal side was collected and the permeation amount was measured by LC/MS. The membrane permeability coefficient (Papp) was calculated from the permeation amount. Herein, the terms “Caco-2 (cm/sec)” in the columns in the tables and “Papp (cm/sec)” are used in the same meaning.
row,Compound,Papp A→B at 180 min
1,CCCCN1CC(=O)N(C)[C@@H](C(C)C)C(=O)N[C@H](C(=O)N2CCCCC2)CC(=O)N(C)[C@@H](CC)C(=O)N[C@@H](CC(C)C)C(=O)N(C)[C@@H](CC(C)C)C(=O)N(C)[C@@H](Cc2ccccc2)C(=O)N[C@@H](CCC(=O)NS(C)(=O)=O)C(=O)N(C)[C@@H](Cc2ccccc2)C(=O)N(C)[C@@H](CC(C)C)C(=O)N[C@@H](CC(C)C)C1=O [pd69] ([NMeAbu]L[NMeL][NMeF][Glu(NHSO2Me)][NMeF][NMeL]L[NBuGly][NMeV]D-Piperidide; lactam N-11),< 0.14 ×10⁻⁶ cm/s
2,CCCN1CC(=O)N(C)[C@@H](Cc2ccccc2)C(=O)N[C@@H](COCC(F)(F)C(F)F)C(=O)N(C)[C@@H](CC(C)C)C(=O)N[C@@H]([C@@H](C)O)C(=O)N(C)CC(=O)N(C)[C@@H](Cc2ccccc2)C(=O)N(C)[C@@H](CC(C)C)C(=O)N[C@@H](COC(C)(C)C)C(=O)N(C)[C@@H](CC(C)C)C(=O)N[C@H](C(=O)N2CCCCC2)CC1=O [pd349] ([NPrGly][NMeF]S(X11)[NMeL]T[Sar][NMeF][NMeL]S(tBu)[NMeL]D-Piperidide; lactam N-11),1.8 ×10⁻⁶ cm/s
3,CC[C@H]1C(=O)N[C@@H]([C@@H](C)O)C(=O)N(C)CC(=O)N(C)[C@@H](Cc2ccccc2)C(=O)N(C)[C@@H](CC)C(=O)N[C@@H](COC(C)(C)C)C(=O)N(C)[C@@H](CC(C)C)C(=O)N[C@H](C(=O)N2CCCCC2)CC(=O)N(CCc2ccccc2)CC(=O)N(C)[C@@H](CC(C)C)C(=O)N[C@@H](CC(C)C)C(=O)N1C [pd412] ([Gly(NCH2CH2Ph)][NMeL]L[NMeAbu]T[Sar][NMeF][NMeAbu]S(tBu)[NMeL]D-Piperidide; lactam N-11),1.5 ×10⁻⁶ cm/s
4,"CC[C@H](C)[C@@H]1NC(=O)[C@H](CC(C)C)N(C)C(=O)CCCN(C)C(=O)C[C@@H](C(=O)N2CCCCC2)NC(=O)[C@H](CC(C)C)N(C)C(=O)[C@H](C)N(C)C(=O)[C@H]([C@@H](C)O)NC(=O)[C@H](CC(C)C)N(C)C(=O)[C@H](CCCCC(F)F)NC(=O)[C@H](Cc2ccccc2)N(C)C(=O)[C@H](Cc2ccccc2)N(C)C1=O [pd333] ([NMeGABA][NMeL]I[NMeF][NMeF][hNle(7,7-F2)][NMeL]T[NMeA][NMeL]D-Piperidide; lactam N-11)",1.3 ×10⁻⁶ cm/s
5,CC(C)C[C@H]1C(=O)N[C@@H](COC(C)(C)C)C(=O)N(C)[C@@H](Cc2ccccc2)C(=O)N(C)[C@@H](C(C)C)C(=O)N[C@H](C(=O)N2CCCCC2)CC(=O)N[C@H](C)C(=O)N(C)[C@@H](Cc2ccccc2)C(=O)NC(COc2cccc(Cl)c2)C(=O)N(C)[C@@H](C(C)C)C(=O)N[C@@H]([C@@H](C)O)C(=O)N(C)CC(=O)N1C (stereo partly shown) [pd343],2.2 ×10⁻⁶ cm/s
6,"CC[C@H](C)[C@H]1C(=O)N[C@@H]([C@@H](C)O)C(=O)N(C)CC(=O)N(C)[C@@H](CC(C)C)C(=O)N[C@H](C(=O)N2CCCCC2)CC(=O)N(C)[C@@H](C)C(=O)N[C@@H](CCCCC(F)F)C(=O)N(C)[C@@H](CC(C)C)C(=O)N(C)[C@@H](Cc2ccccc2)C(=O)N[C@@H](C(C)C)C(=O)N(C)[C@@H](Cc2ccccc2)C(=O)N1C [pd334] ([NMeA][hNle(7,7-F2)][NMeL][NMeF]V[NMeF][NMeI]T[Sar][NMeL]D-Piperidide; lactam N-11)",2.4 ×10⁻⁶ cm/s
7,CC(C)CCOCC1NC(=O)[C@H](CC(C)C)N(C)C(=O)[C@H](Cc2ccccc2)N(C)C(=O)CN(C)C(=O)[C@H]([C@@H](C)O)NC(=O)[C@H](CC(C)C)N(C)C(=O)[C@H](C(C)C)NC(=O)[C@H](Cc2ccccc2)N(C)C(=O)CN(C)C(=O)C[C@@H](C(=O)N2CCCCC2)NC(=O)[C@H](CC(C)C)N(C)C1=O (stereo partly drawn) [pd305] ([Sar][NMeF]V[NMeL]T[Sar][NMeF][NMeL][ξS](Isopentyl)[NMeL]D-Piperidide; lactam N-11),2.3 ×10⁻⁶ cm/s
8,CCCN1CC(=O)N(C)[C@@H](CC(C)C)C(=O)N[C@@H](COCCC(C)C)C(=O)N(C)[C@@H](Cc2ccccc2)C(=O)N(C)[C@@H](C(C)C)C(=O)N[C@H](C(=O)N2CCCCC2)CC(=O)N[C@H](C(C)C)C(=O)N(C)[C@@H](Cc2ccccc2)C(=O)N[C@@H](COCC(C)(C)O)C(=O)N(C)[C@@H](CC(C)C)C(=O)N[C@@H]([C@@H](C)O)C1=O [pd426] ([dV][NMeF]S(CH2CMe2OH)[NMeL]T[NPrGly][NMeL]S(Isopentyl)[NMeF][NMeV]D-Piperidide; lactam N-11),1.4 ×10⁻⁶ cm/s
9,CC[C@H](C)[C@H]1C(=O)N[C@H](C(=O)N2CCCCC2)CC(=O)N(C)CC(=O)N(C)[C@@H](Cc2ccccc2)C(=O)N[C@@H](CCCc2ccccc2)C(=O)N(C)[C@@H](CC(C)C)C(=O)N[C@@H]([C@@H](C)O)C(=O)N(C)CC(=O)N(C)[C@@H](Cc2ccccc2)C(=O)N(C)[C@@H](CC(C)C)C(=O)N[C@@H](COC(C)(C)C)C(=O)N1C [pd366] ([Sar][NMeF][hhPhe][NMeL]T[Sar][NMeF][NMeL]S(tBu)[NMeI]D-Piperidide; lactam N-11),1.8 ×10⁻⁶ cm/s

# Same assay, conditions: human, Caco-2, Caco-2 (cm/sec)
row,Compound,Papp A→B at 180 min
1,CC[C@H](C)[C@@H]1NC(=O)[C@H](Cc2ccccc2)N(C)C(=O)[C@H](C)N(C)C(=O)[C@H](CC(C)C)N(C)C(=O)[C@H](Cc2ccccc2)N(C)C(=O)CCN(C)C(=O)C[C@@H](C(=O)N(C)[C@@H](Cc2ccccc2)C(=O)N(C)[C@@H](Cc2ccccc2)C(=O)N[C@@H](C)C(=O)N2CCCCC2)NC(=O)[C@H]([C@@H](C)O)NC(=O)[C@H](CC(C)C)N(C)C(=O)[C@H](CC(C)C)N(C)C1=O [pd239] ([NMeβAla][NMeF][NMeL][NMeA][NMeF]I[NMeL][NMeL]TD[NMeF][NMeF]A-Piperidide; lactam N-10),0.065 ×10⁻⁶ cm/s
2,CC(C)C[C@@H]1NC(=O)[C@H](Cc2ccccc2)N(C)C(=O)[C@H](C)N(C)C(=O)C[C@@H](C(=O)N2CCCCC2)NC(=O)[C@H](C(C)C)N(C)C(=O)[C@H](Cc2ccccc2)N(C)C(=O)[C@H](COC(C)(C)C)NC(=O)[C@H](CC(C)C)N(C)C(=O)CN(C)C(=O)[C@H](Cc2cccnc2)NC(=O)[C@H](CC(C)C)N(C)C1=O [pd197] ([NMeA][NMeF]L[NMeL][3Pal][Sar][NMeL]S(tBu)[NMeF][NMeV]D-Piperidide; lactam N-11),3 ×10⁻⁶ cm/s
3,CC(C)C[C@@H]1NC(=O)[C@H](Cc2ccccc2)N(C)C(=O)[C@@H](C)N(C)C(=O)C[C@@H](C(=O)N2CCCCC2)N(C)C(=O)[C@H](Cc2ccccc2)N(C)C(=O)[C@H](Cc2ccccc2)N(C)C(=O)[C@H](COC(C)(C)C)NC(=O)[C@H](C(C)C)N(C)C(=O)CN(C)C(=O)[C@H]([C@@H](C)O)NC(=O)[C@H](CC(C)C)N(C)C1=O [pd199] ([dNMeA][NMeF]L[NMeL]T[Sar][NMeV]S(tBu)[NMeF][NMeF][NMeD]-Piperidide; lactam N-11),2.6 ×10⁻⁶ cm/s

# Same assay, conditions: human; Papp, Caco-2 membrane permeability, improved method; read-out: Caco-2
row,Compound,Papp A→B at 180 min
1,CNC(=O)CC[C@@H]1NC(=O)[C@H](CC(C)C)N(C)C(=O)[C@H](C(C)C)N(C)C(=O)[C@H](Cc2ccccc2)NC(=O)[C@H](Cc2ccccc2)N(C)C(=O)[C@H](CC(C)C)N(C)C(=O)[C@H](CC(C)C)NC(=O)[C@H](CC(C)C)N(C)C(=O)C[C@@H](C(=O)N2CCCCC2)NC(=O)[C@H](CC(C)C)N(C)C(=O)CN(C)C1=O [pd463] ([NMeL]L[NMeL][NMeF]F[NMeV][NMeL]E(NHMe)[Sar][NMeL]D-Piperidide; lactam N-11),1.2 ×10⁻⁶ cm/s
